Test results reported in patent US8114872B2, “Triazolyl aminopyrimidine compounds” (Eli Lilly and Company, priority 2007, dated 2012).
Like-named read-outs stand apart in the source and are kept apart here.

How the values were obtained:
[1] = in man, cited from earlier work
[2] = test system: HCT116, A549 and NCIH460 murine xenografts; settings: cited from earlier work
[3] = biological target: T1, Plk1-Flag-His6 tag fusion enzyme (Human Plk1) (Homo sapiens, UniProt P53350); assay: Plk1 Inhibition Assay (33P-ATP filter plate kinase reaction, GST-Cdc25C(1-206) substrate); type: biochemical; settings: 5.0 μM ATP, RT 60 min; MSR 3.6; racemate; read-out: Plk1 IC50 (absolute IC50)
T1 construct: made in house; host or cells: Sf9 insect cells (baculovirus, pFastBac vector); substrate in E. coli BL21 (pGEX-2T)
T1 sequence (P53350 whole entry, the tested form may be a part): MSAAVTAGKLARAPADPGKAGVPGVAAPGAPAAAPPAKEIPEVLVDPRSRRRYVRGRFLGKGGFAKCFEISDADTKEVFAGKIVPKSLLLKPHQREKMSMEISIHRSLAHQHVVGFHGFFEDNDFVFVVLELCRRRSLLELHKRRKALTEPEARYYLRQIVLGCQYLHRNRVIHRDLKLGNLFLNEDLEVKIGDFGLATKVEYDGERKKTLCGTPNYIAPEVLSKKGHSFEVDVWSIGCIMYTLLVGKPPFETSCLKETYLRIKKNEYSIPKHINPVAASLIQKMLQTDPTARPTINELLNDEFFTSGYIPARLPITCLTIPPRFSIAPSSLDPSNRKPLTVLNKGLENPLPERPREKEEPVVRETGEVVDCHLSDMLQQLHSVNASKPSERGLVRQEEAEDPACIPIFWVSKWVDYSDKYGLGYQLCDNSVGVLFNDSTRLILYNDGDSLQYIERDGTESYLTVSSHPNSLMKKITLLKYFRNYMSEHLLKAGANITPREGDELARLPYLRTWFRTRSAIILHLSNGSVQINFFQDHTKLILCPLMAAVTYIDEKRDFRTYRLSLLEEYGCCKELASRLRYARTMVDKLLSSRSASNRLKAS
From the text: Human Plk1 cDNA may be directly linked at one of its termini with a polynucleotide sequence expressing a His6 tag, such as the C-terminal FLAG-His6 tag, and inserted into an appropriate expression vector, such as a pFastBac™ vector (Invitrogen) and transfected into an appropriate system, such as baculovirus similar to what has been reported by Yue-Wei Qian, et al., Science, 282, 1701 (1998) for xPlk1. If a viral expression system is used, then the virus (e.g., baculovirus bearing a Plk1-Flag-His6 tag polynucleotide construct) is infected into a culture of a suitable host cell, such as Sf9 cells. […]
Plk1 kinase reactions contain Plk1-Flag-His6 tag fusion enzyme (0.2 ng/μL) in a buffer containing 50 mM HEPES, pH 7.3, 1.0 mM dithiothreitol, 5.0 μM ATP, 10 mM MgCl2, 0.01% TRITON® X-100, 0.4 μCi ^33P-ATP, and 0.06 μg/μL GST-Cdc25c (1-206) peptide. […] Wells are dried before addition of 40 μL of MicroScintTM20 (Packard) and then counted on a Wallac MICROBETA® Jet. The percentage inhibition values from the 10-point concentration response data are subsequently analyzed, for example, using ACTIVITY BASE™ software (IDBS), using a 4-parameter logistic equation. Absolute IC50 values are calculated from the resulting curve fit.

[4] = test system: HCT116 cells; assay: Antiproliferative Assay (Alamar Blue); type: cell-based; settings: Homo sapiens, HCT-116, e.g. 72 hours exposure, n=2, MSR 3.1, racemate, read-out: average IC50 (cell proliferation)
Description: The effects of compounds on cell proliferation can be determined using cells and cell proliferation methods well-known in the art (Robert C. Squatrito et al., Gynecological Oncology, 58, 101-105, (1995)). For example, HCT116 cells, which may be obtained from the American Type Culture Collection, may be seeded at ˜2000 cells/well in 96-well plates and allowed to attach overnight in a humidified CO2 incubator at 37° C. Following the 20-24 hour incubation, half-log serially diluted compounds are added and the plates are returned to the incubator. After an appropriate length of exposure (e.g., 72 hours), cell proliferation is estimated using well-known methods. In one method, 10 μL of a tetrazolium salt, such as Alamar Blue™ is added to the cell plates. After an appropriate exposure to the dye, fluorescence (530 nm excitation, 580 nm emission) is determined.

[5] = test system: HeLa Cells; assay: pHH3(S10), Mitotic Cells, and DNA Content Assays; type: cell-based; settings: Homo sapiens, 23 hours exposure
Description: HeLa Cells are plated at 200 cells/well in 96 well […] Dickinson BIOCOAT™ plates, and are incubated in MEM (Minimum Essential Medium) with 10% FBS (Fetal Bovine Serum) in 37° C., 5% CO2 for 24 hours. Cells are treated by adding compound (in 0.25% DMSO) to the medium, dosing at 10 points across the range […] to 0.0098 μM. After 23 hours exposure to the compounds, cells are fixed, for example with the PREFER™ fixative for 30 min then are permeabilized with 0.1% TRITON® X100 in phosphate buffered saline (PBS) solution for 15 min. Cells are washed 3 times with PBS then digested with 50 μg/mL RNAse. Primary antibody, phosphohistone H3, is added at 1:500 in PBS with 1% bovine serum albumin (BSA) to the cells over night at 4° C. After 3 PBS washes, cells are incubated with Alexa488 labeled secondary antibody for 1 hour at RT. Again they are washed 3 times with PBS, and then 15 μM propidium iodide is added for 30 min to stain nuclei. Fluorescence Plates are scanned with ACUMEN EXPLORER™ [Laser-scanning fluorescence microplate cytometer (comprising of 488 nm argon ion laser excitation and multiple photomultiplier tube detection), manufactured by TTP LABTECH LTD] to measure anti-phosphohistone H3 Serine 10, DNA content and mitotic cells as measured by DNA condensation. Image analysis are based on cellular fluorescent signals for identifying cells in different subpopulations. pHH3(S10) positive cells are identified by mean intensity at 500-530 nm above the threshold. Total intensity at 655-705 nm from propidium iodide/DNA is used to identify individual cells (cells with DNA content from 2N to 4N) and subpopulations in cell cycle (2N cells, 4N cells). Peak intensity at 575-640 nm is used to identify DNA condensation that is used as the marker to identify mitotic cells among 4N cells. Assay outputs are percentage of each identified subpopulations, % pHH3, % 2N, % 4N, % mitotic and total cell number. The EC50 is determined by curve fitting to a four parameter logistic for each output using ACTIVITY BASE™.

SMILES	dose-limiting toxicity ([1]; phase II clinical trials)	clearance (CL) [1] [mL/min]	activity in preclinical xenograft models [2]	IC50 [3] [nM]	IC50 [4] [nM]	EC50 ([5]; MSR 2.4, racemate, read-out: DNA content EC50) [nM]	EC50 ([5]; MSR 2.5, racemate, read-out: mitotic EC50) [nM]	EC50 ([5]; MSR 2.6, racemate, read-out: pHH3(s10) EC50) [nM]
CC[C@@H]1C(=O)N(C)c2cnc(Nc3ccc(C(=O)NC4CCN(C)CC4)cc3OC)nc2N1C1CCCC1 [BI-2536]	dose limited by myelosupression	> 1000	demonstrated activity					
CC(N)c1cnc(F)cc1-c1cccc2cc(-c3nc(NCCn4ccnn4)ncc3F)sc12 (racemic) [Example 41, N-(2-(1H-1,2,3-Triazol-1-yl)ethyl)-4-(7-(5-(1-aminoethyl)-2-fluoropyridin-4-yl)benzo[b]thiophen-2-yl)-5-fluoropyrimidin-2-amine]				12	31	30	23	25
